Converted amounts (≈) assume the structure as drawn.
Key:
Format in all cases: cell-based
C. albicans SC5314 = experiment: MIC80 broth double-dilution assay; conditions: YPAD medium, 30° C., 24 h
Procedure: (§1) The antifungal activities of the 24 azole-COX inhibitor hybrids were evaluated against a panel of 16 representative strains of different species of the genus Candida. Candida species cause both superficial and systemic infections. The panel included strains of C. albicans, C. glabrata, C. parapsilosis, C. tropicalis, C. guilliermondii, C. dubliniensis, and C. auris (Table S2). To evaluate antifungal activity, the minimal inhibitory concentration 80% (MIC80) values were determined, which were defined as the lowest drug concentrations with turbidity (measured at OD600) less than or equal to that of specific 1:5 dilutions of the growth control. As controls, FLC and VOR, were tested.
(§2) MIC80 values were determined using the broth microdilution method over a concentration range of 0.003-64 μg/mL. Orange circles represent C. albicans strains, yellow circles represent C. glabrata strains, and green circles represent C. parapsilosis, C. tropicalis, C. dubliniensis and C. auris. Cells were grown in YPAD medium at 30° C. (For C. auris strains 37° C.) 24 h. Each concentration was tested in triplicate, and results were confirmed in at least two independent experiments.
(§3) C. albicans, C. glabrata, C. parapsilosis, C. guilliermondii, C. tropicalis, and C. dubliniensis MICs were determined using CLSI M27-A3 guidelines with minor modifications. Starter cultures were streaked from glycerol stock onto YPAD agar plates and grown for 24 h at 30° C. Colonies were suspended in 1 mL PBS and diluted to 1×10^−3 OD600 and then diluted 1:100 into fresh medium. Hybrids dissolved in DMSO were added to YPAD broth (32 μL stock solution in 1218 μL of YPAD broth), and serial double dilutions of hybrids in YPAD were prepared in flat-bottomed 96-well microplates (Corning) to enable testing of concentrations ranging from 64 μg/mL to 0.003 μg/mL. Control wells with yeast cells but no drug and blank wells containing only YPAD were prepared. An equal volume (100 μL) of yeast suspensions in YPAD broth was added to each well with the exceptions of the blank wells. MIC values (Tables S4-S6) were determined after 24 h at 30° C. by measuring the OD600 using a plate reader (Infinite M200 PRO, Tecan). MIC values were defined as the point at which the OD600 was reduced by >80% compared to the no-drug wells. Each concentration was tested in triplicate, and results were confirmed by two independent sets of experiments. FLC and VOR were used as control drugs.

C. dubliniensis T-99 = experiment: MIC80 broth double-dilution assay; conditions: YPAD medium, 30° C., 24 h
Procedure: as §1, §2, §3

C. tropicalis 660 = experiment: MIC80 broth double-dilution assay; conditions: YPAD medium, 30° C., 24 h
Procedure: as §1, §2, §3

C. albicans ATCC 90028 = experiment: MIC80 broth double-dilution assay; conditions: YPAD medium, 30° C., 24 h
Procedure: as §1, §2, §3

C. albicans ATCC 24433 = experiment: MIC80 broth double-dilution assay; conditions: YPAD medium, 30° C., 24 h
Procedure: as §1, §2, §3

C. albicans P-87 = experiment: MIC80 broth double-dilution assay; conditions: YPAD medium, 30° C., 24 h
Procedure: as §1, §2, §3

[1] = tested on: C. parapsilosis ATCC 22019; experiment: MIC80 broth double-dilution assay; conditions: YPAD medium, 30° C., 24 h
Procedure: as §1, §2, §3

C. auris ATCC MYA5002 = experiment: MIC broth double-dilution assay with MTT (CLSI M27-A3); conditions: YPAD medium, 37° C., 24 h, growth score 0 or 1
Procedure: (§4) Minimal inhibitory concentration broth double-dilution assay: C. auris minimal inhibitory concentrations (MICs) were determined using CLSI M27-A3 guidelines with minor modifications. Starter cultures were streaked from glycerol stock onto YPAD agar plates and grown for 24 h at 37° C. Colonies were suspended in 1 mL PBS and diluted to 1×10^−3 optical density at 600 nm (OD600) and then diluted 1:100 into fresh medium. hybrids dissolved in DMSO were added to YPAD broth (32 μL stock solution in 1218 μL of YPAD broth), and serial double dilutions of hybrids in YPAD were prepared in flat-bottomed 96-well microplates (Corning) to enable testing of concentrations ranging from 64 μg/mL to 0.007 μg/mL. Control wells with yeast cells but no drug and blank wells containing only YPAD were prepared. An equal volume (100 μL) of yeast suspension in YPAD broth was added to each well with the exceptions of the blank wells. After incubation for 24 h at 37° C., MTT (50 μL of a 1 mg/mL solution in ddH2O) was added to each well followed by additional incubation at 37° C. for 2 h. MIC values (Table S3) were defined as the lowest concentration of an antifungal agent that caused a specified reduction in visible growth as per the CLSI M27-A3 protocol. The magnitude of reduction in visible growth was assessed using the following numerical scale: 0, optically clear; 1, slightly hazy; 2, prominent decrease (˜50%) in visible growth; 3, slight reduction in visible growth; and 4, no reduction in visible growth. The MIC was defined based on reduction in growth to 0 or 1. Results were confirmed in two independent experiments, and each concentration was tested in triplicate. FLC and VOR were used as control drugs.

C. auris ATCC MYA5001 = experiment: as above; conditions: YPAD medium, 37° C., 24 h, growth score 0 or 1
Procedure: as §4

C. albicans SN152 = experiment: MIC80 broth double-dilution assay; conditions: YPAD medium, 30° C., 24 h; parent strain of the erg11ΔΔ/erg3ΔΔ mutant
Procedure: as §1, §2
(§5) The clinically used FLC and VOR act primarily by preventing ergosterol biosynthesis via inhibition of CYP51. Analysis was done to determine whether fungal growth inhibition by the hybrids required the presence of the ERG11 gene that encodes for CYP51. The antifungal activities of hybrids 1 and 5 and of FLC and VOR were determined against an erg11ΔΔ/erg3ΔΔ mutant C. albicans strain and against C. albicans SN152 from which this double knockout strain was derived (Table S2). […] Yeast growth was followed at OD600 over 48 h in 96-well plates containing serial double dilutions of the tested hybrids.
as §3

[2] = tested on: C. albicans 742 (erg11ΔΔ/erg3ΔΔ mutant C. albicans strain); experiment: MIC80 broth double-dilution assay, strain lacking CYP51; conditions: YPAD medium, 30° C., 24 h; erg11ΔΔ/erg3ΔΔ mutant lacking CYP51
Procedure: as §1, §5, §3

C. guilliermondii T-47 = experiment: MIC80 broth double-dilution assay; conditions: YPAD medium, 30° C., 24 h
Procedure: as §1, §3

SMILES	MIC80 against C. albicans SC5314 (C. albicans SC5314) [µg/mL]	MIC80 against C. dubliniensis T-99 (C. dubliniensis T-99) [µg/mL]	MIC80 against C. tropicalis 660 (C. tropicalis 660) [µg/mL]	MIC80 against C. albicans 90028 (C. albicans ATCC 90028) [µg/mL]	MIC80 against C. albicans 24433 (C. albicans ATCC 24433) [µg/mL]	MIC80 against C. albicans P-87 (C. albicans P-87) [µg/mL]	MIC80 against C. parapsilosis 22019 [1] [µg/mL]	MIC against C. auris 5002 (C. auris ATCC MYA5002) [µg/mL]	MIC against C. auris 5001 (C. auris ATCC MYA5001) [µg/mL]	MIC80 against C. albicans SN152 (C. albicans SN152) [µg/mL]	MIC80 against C. albicans 742 [2] [µg/mL]	MIC80 against C. guilliermondii T-47 (C. guilliermondii T-47) [µg/mL]
COc1ccc2cc([C@@H](C)C(=O)NC[C@](O)(Cn3cncn3)c3ccc(F)cc3F)ccc2c1 [Hybrid 10]	0.12 (≈ 0.257 µM)	2 (≈ 4.29 µM)	4 (≈ 8.57 µM)	0.12 (≈ 0.257 µM)	0.25 (≈ 0.536 µM)	0.25 (≈ 0.536 µM)	1 (≈ 2.14 µM)	16 (≈ 34.3 µM)	0.5 (≈ 1.07 µM)	0.012 (≈ 0.0257 µM)	>64	1 (≈ 2.14 µM)
O=C(NC[C@](O)(Cn1cncn1)c1ccc(F)cc1F)c1cccnc1Nc1cccc(C(F)(F)F)c1 [Hybrid 17]	0.12 (≈ 0.231 µM)	2 (≈ 3.86 µM)	2 (≈ 3.86 µM)	0.12 (≈ 0.231 µM)	0.12 (≈ 0.231 µM)	0.25 (≈ 0.482 µM)	0.5 (≈ 0.964 µM)	4 (≈ 7.72 µM)	0.25 (≈ 0.482 µM)	0.06 (≈ 0.116 µM)	16 (≈ 30.9 µM)	2 (≈ 3.86 µM)
O=C(NC[C@@](O)(Cn1cncn1)c1ccc(F)cc1F)c1cccnc1Nc1cccc(C(F)(F)F)c1 [Hybrid 18]	16 (≈ 30.9 µM)	16 (≈ 30.9 µM)	>64	16 (≈ 30.9 µM)	8 (≈ 15.4 µM)	16 (≈ 30.9 µM)	8 (≈ 15.4 µM)			8 (≈ 15.4 µM)	64 (≈ 123 µM)	>64
O=C(NC[C@](O)(Cn1cncn1)c1ccc(F)cc1F)c1cc(-c2ccc(F)cc2F)ccc1O [Hybrid 19]	0.06 (≈ 0.123 µM)	2 (≈ 4.11 µM)	0.12 (≈ 0.247 µM)	0.12 (≈ 0.247 µM)	0.06 (≈ 0.123 µM)	0.03 (≈ 0.0617 µM)	0.06 (≈ 0.123 µM)	2 (≈ 4.11 µM)	0.12 (≈ 0.247 µM)	0.03 (≈ 0.0617 µM)	64 (≈ 132 µM)	2 (≈ 4.11 µM)
O=C(NC[C@@](O)(Cn1cncn1)c1ccc(F)cc1F)c1cc(-c2ccc(F)cc2F)ccc1O [Hybrid 20]	8 (≈ 16.4 µM)	0.5 (≈ 1.03 µM)	>64	16 (≈ 32.9 µM)	16 (≈ 32.9 µM)	8 (≈ 16.4 µM)	8 (≈ 16.4 µM)			8 (≈ 16.4 µM)	32 (≈ 65.8 µM)	>64
O=C(NC[C@](O)(Cn1cncn1)c1ccc(F)cc1F)c1ccccc1O [Hybrid 21]	0.12 (≈ 0.321 µM)	2 (≈ 5.34 µM)	0.12 (≈ 0.321 µM)	0.25 (≈ 0.668 µM)	0.12 (≈ 0.321 µM)	0.12 (≈ 0.321 µM)	1 (≈ 2.67 µM)	8 (≈ 21.4 µM)	0.25 (≈ 0.668 µM)	0.12 (≈ 0.321 µM)	>64	1 (≈ 2.67 µM)
O=C(NC[C@@](O)(Cn1cncn1)c1ccc(F)cc1F)c1ccccc1O [Hybrid 22]	8 (≈ 21.4 µM)	>64	32 (≈ 85.5 µM)	8 (≈ 21.4 µM)	16 (≈ 42.7 µM)	16 (≈ 42.7 µM)	8 (≈ 21.4 µM)			8 (≈ 21.4 µM)	>64	16 (≈ 42.7 µM)
O=C(Cc1ccccc1Nc1c(Cl)cccc1Cl)NC[C@@](O)(Cn1cncn1)c1ccc(F)cc1F [Hybrid 24]	>64	2 (≈ 3.76 µM)	>64	>64	>64	>64	>64			>64	>64	>64

— patent US20250018048A1, “FLUCONAZOLE-COX INHIBITOR HYBRIDS: A DUAL-ACTING CLASS OF ANTIFUNGAL AZOLES” (Ramot at Tel-Aviv University Ltd., priority 2022, published 2025)
